Test results as given in patent US20150239889A1, “PYRAZOLOPYRIMIDINE COMPOUND” (MITSUBISHI TANABE PHARMA CORPORATION, priority 2012, published 2015).

Tests used:
human HIF-PHD3 = biological target: T1, human HIF-PHD3 (Homo sapiens, UniProt Q9H6Z9); assay: HIF-PHD inhibition assay (fluorescence polarization), human HIF-PHD3; type: biochemical; details: 2-oxoglutaric acid 166 μmol/L
T1 construct: purchased CrystalGenomics Ltd
Method: (§1) The activity of the test compound to inhibit human HIF-PHD2 and human HIF-PHD3 was determined.
(§2) The value of enzyme activity was calculated by subtracting the value of fluorescence polarization before addition of the enzyme from the value of fluorescence polarization after addition of enzyme (mP value).
(§3) FAM: 5′-fluoresceinamide ACA: aminocaproic acid

human HIF-PHD2 = biological target: T2, human HIF-PHD2 (Homo sapiens, UniProt Q9GZT9); assay: HIF-PHD inhibition assay (fluorescence polarization), human HIF-PHD2; type: biochemical; details: 2-oxoglutaric acid 3.33 μmol/L
T2 construct: purchased CrystalGenomics Ltd
Method: as §1, §2, §3

T1 sequence (Q9H6Z9 whole entry): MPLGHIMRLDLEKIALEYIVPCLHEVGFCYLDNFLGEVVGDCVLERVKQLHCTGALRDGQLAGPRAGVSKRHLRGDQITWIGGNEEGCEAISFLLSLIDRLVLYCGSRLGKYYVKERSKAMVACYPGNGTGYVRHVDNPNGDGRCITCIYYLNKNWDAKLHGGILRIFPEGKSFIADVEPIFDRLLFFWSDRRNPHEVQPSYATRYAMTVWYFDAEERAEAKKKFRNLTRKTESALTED
T2 sequence (Q9GZT9 2-426 limits assumed): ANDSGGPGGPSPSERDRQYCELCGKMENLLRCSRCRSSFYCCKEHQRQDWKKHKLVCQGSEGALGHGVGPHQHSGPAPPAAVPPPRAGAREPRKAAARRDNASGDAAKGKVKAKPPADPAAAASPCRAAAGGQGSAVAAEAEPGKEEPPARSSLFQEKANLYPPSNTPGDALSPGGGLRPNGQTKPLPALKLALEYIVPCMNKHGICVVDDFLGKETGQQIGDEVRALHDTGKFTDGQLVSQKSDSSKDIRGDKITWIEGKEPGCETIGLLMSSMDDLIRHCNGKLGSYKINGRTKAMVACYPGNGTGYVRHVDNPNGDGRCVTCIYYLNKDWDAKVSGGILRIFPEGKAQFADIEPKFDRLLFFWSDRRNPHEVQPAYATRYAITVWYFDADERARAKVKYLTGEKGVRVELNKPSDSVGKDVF

| Compound | IC50 (human HIF-PHD3) [nM] | IC50 (human HIF-PHD2) [nM] |
| --- | --- | --- |
| C[C@@H](c1ccccc1Cl)n1ncc2nc(-n3cc(C(=O)O)cn3)nc(O)c21 [Example 257] | 870 | 200 |
| C[C@@H](c1cccc(C(F)(F)F)c1)n1ncc2nc(-n3cc(C(=O)O)cn3)nc(O)c21 [Example 258] | 420 | 38 |
| Cc1ccc([C@H](C)n2ncc3nc(-n4cc(C(=O)O)cn4)nc(O)c32)cc1C [Example 259] | 690 | 44 |
| COc1ccc([C@H](C)n2ncc3nc(-n4cc(C(=O)O)cn4)nc(O)c32)cc1 [Example 260] | 950 | 48 |
| Cc1cccc([C@H](C)n2ncc3nc(-n4cc(C(=O)O)cn4)nc(O)c32)c1 [Example 262] | 360 | 29 |
| Cc1ccccc1[C@H](C)n1ncc2nc(-n3cc(C(=O)O)cn3)nc(O)c21 [Example 265] | 780 | 160 |
| Cc1cc(Cl)cc([C@H](C)n2ncc3nc(-n4cc(C(=O)O)cn4)nc(O)c32)c1 [Example 267] | 530 | 86 |
| C[C@H](c1cc(Cl)cc(C(F)(F)F)c1)n1ncc2nc(-n3cc(C(=O)O)cn3)nc(O)c21 [Example 268] | 890 | 100 |
| C[C@@H](c1cc(Cl)cc(C(F)(F)F)c1)n1ncc2nc(-n3cc(C(=O)O)cn3)nc(O)c21 [Example 269] | 370 | 42 |
| C[C@H](c1ccc(Cl)c(F)c1)n1ncc2nc(-n3cc(C(=O)O)cn3)nc(O)c21 [Example 270] | 440 | 48 |
| C[C@@H](c1ccc(Cl)c(F)c1)n1ncc2nc(-n3cc(C(=O)O)cn3)nc(O)c21 [Example 271] | 260 | 12 |
| C[C@@H](c1cc(C(F)(F)F)cc(C(F)(F)F)c1)n1ncc2nc(-n3cc(C(=O)O)cn3)nc(O)c21 [Example 272] | 980 | 79 |
| C[C@H](c1cc(F)cc(C(F)(F)F)c1)n1ncc2nc(-n3cc(C(=O)O)cn3)nc(O)c21 [Example 273] | 520 | 92 |
| C[C@@H](c1cc(F)cc(C(F)(F)F)c1)n1ncc2nc(-n3cc(C(=O)O)cn3)nc(O)c21 [Example 274] | 380 | 38 |
| C[C@@H](c1cc(C(F)(F)F)ccc1C(F)(F)F)n1ncc2nc(-n3cc(C(=O)O)cn3)nc(O)c21 [Example 275] | 920 | 120 |
| C[C@@H](c1ccc(OC(F)(F)F)cc1)n1ncc2nc(-n3cc(C(=O)O)cn3)nc(O)c21 [Example 276] | 380 | 15 |
| Cc1ccc([C@@H](C)n2ncc3nc(-n4cc(C(=O)O)cn4)nc(O)c32)cc1C(F)(F)F [Example 277] | 610 | 61 |
| Cc1ccc([C@H](C)n2ncc3nc(-n4cc(C(=O)O)cn4)nc(O)c32)cc1C(F)(F)F [Example 278] | 420 | 120 |
| C[C@@H](c1cccc(Cl)c1F)n1ncc2nc(-n3cc(C(=O)O)cn3)nc(O)c21 [Example 279] | 560 | 120 |
| C[C@H](c1ccc(C(F)(F)F)c(F)c1)n1ncc2nc(-n3cc(C(=O)O)cn3)nc(O)c21 [Example 280] | 850 | 62 |
| C[C@@H](c1ccc(C(F)(F)F)c(F)c1)n1ncc2nc(-n3cc(C(=O)O)cn3)nc(O)c21 [Example 281] | 450 | 20 |

| Compound | IC50 (human HIF-PHD3) [nM] | IC50 (human HIF-PHD2) [nM] |
| --- | --- | --- |
| C[C@@H](c1cc(Cl)ccc1F)n1ncc2nc(-n3cc(C(=O)O)cn3)nc(O)c21 [Example 282] | 1400 | 77 |
| Cc1ccc(C)c([C@H](C)n2ncc3nc(-n4cc(C(=O)O)cn4)nc(O)c32)c1 [Example 283] | > 3000 | 68 |
| C[C@H](c1ccc(C(F)(F)F)cc1)n1ncc2nc(-n3cc(C(=O)O)cn3)nc(O)c21 [Example 284] | 830 | 150 |
| Cc1ccc(C(F)(F)F)cc1[C@@H](C)n1ncc2nc(-n3cc(C(=O)O)cn3)nc(O)c21 [Example 285] | 870 | 76 |
| Cc1ccc(C(F)(F)F)cc1[C@H](C)n1ncc2nc(-n3cc(C(=O)O)cn3)nc(O)c21 [Example 286] | 820 | 96 |
| Cc1ccc(F)cc1[C@H](C)n1ncc2nc(-n3cc(C(=O)O)cn3)nc(O)c21 [Example 287] | 840 | 48 |
| C[C@@H](c1cc(C(F)(F)F)ccc1F)n1ncc2nc(-n3cc(C(=O)O)cn3)nc(O)c21 [Example 288] | 480 | 180 |
| C[C@@H](c1ccc2c(c1)CCC2)n1ncc2nc(-n3cc(C(=O)O)cn3)nc(O)c21 [Example 289] | 210 | 30 |
| C[C@@H](c1ccc2c(c1)CCCC2)n1ncc2nc(-n3cc(C(=O)O)cn3)nc(O)c21 [Example 290] | 400 | 38 |
| Cc1ccc(C(C)n2ncc3nc(-n4cc(C(=O)O)cn4)nc(O)c32)cc1 (stereo not drawn) [Example 291] | 730 | 72 |
| Cc1cc(C(C)n2ncc3nc(-n4cc(C(=O)O)cn4)nc(O)c32)ccc1Cl (stereo not drawn) [Example 293] | 510 | 61 |
| Cc1ccc(C(C)n2ncc3nc(-n4cc(C(=O)O)cn4)nc(O)c32)cc1F (stereo not drawn) [Example 295] | 700 | 64 |
| Cc1ccc(C(C)n2ncc3nc(-n4cc(C(=O)O)cn4)nc(O)c32)cc1Cl (stereo not drawn) [Example 297] | 660 | 66 |
| Cc1cc(F)cc(C(C)n2ncc3nc(-n4cc(C(=O)O)cn4)nc(O)c32)c1 (stereo not drawn) [Example 299] | 700 | 79 |
| Cc1cc(C(C)n2ncc3nc(-n4cc(C(=O)O)cn4)nc(O)c32)ccc1F (stereo not drawn) [Example 301] | 710 | 54 |
| CC(c1ccc(F)c(C(F)(F)F)c1)n1ncc2nc(-n3cc(C(=O)O)cn3)nc(O)c21 (stereo not drawn) [Example 303] | 610 | 78 |
| CC(c1cc(F)cc(Cl)c1)n1ncc2nc(-n3cc(C(=O)O)cn3)nc(O)c21 (stereo not drawn) [Example 305] | 590 | 59 |
| CC(c1cc(Cl)cc(Cl)c1)n1ncc2nc(-n3cc(C(=O)O)cn3)nc(O)c21 (stereo not drawn) [Example 307] | 500 | 45 |
| Cc1cc(C)cc(C(C)n2ncc3nc(-n4cc(C(=O)O)cn4)nc(O)c32)c1 (stereo not drawn) [Example 309] | 680 | 94 |
| Cc1ccc(Cl)cc1C(C)n1ncc2nc(-n3cc(C(=O)O)cn3)nc(O)c21 (stereo not drawn) [Example 311] | 770 | 67 |
| Cc1ccc(F)c(C(C)n2ncc3nc(-n4cc(C(=O)O)cn4)nc(O)c32)c1 (stereo not drawn) [Example 313] | 900 | 40 |

| Compound | IC50 (human HIF-PHD3) [nM] | IC50 (human HIF-PHD2) [nM] |
| --- | --- | --- |
| CC(c1ccc(Cl)c(C(F)(F)F)c1)n1ncc2nc(-n3cc(C(=O)O)cn3)nc(O)c21 (stereo not drawn) [Example 315] | 880 | 45 |
| C[C@@H](c1ccc(OC(F)(F)F)c(F)c1)n1ncc2nc(-n3cc(C(=O)O)cn3)nc(O)c21 [Example 317] | 520 | 19 |
| C[C@@H](c1ccc(OC(F)(F)F)c(Cl)c1)n1ncc2nc(-n3cc(C(=O)O)cn3)nc(O)c21 [Example 318] | 290 | 16 |
| CC(c1cc(Cl)c(Cl)s1)n1ncc2nc(-n3cc(C(=O)O)cn3)nc(O)c21 (stereo not drawn) [Example 319] | 520 | 85 |
| O=C(O)c1cnn(-c2nc(O)c3c(cnn3Cc3ccc(C4CC4)cc3)n2)c1 [Example 321] | 190 | 11 |
| CCC(c1ccc(Cl)cc1)n1ncc2nc(-n3cc(C(=O)O)cn3)nc(O)c21 (stereo not drawn) [Example 322] | 180 | 48 |
| CCC(c1ccc(F)cc1)n1ncc2nc(-n3cc(C(=O)O)cn3)nc(O)c21 (stereo not drawn) [Example 324] | 650 | 95 |
| CCC(c1ccc(C)cc1)n1ncc2nc(-n3cc(C(=O)O)cn3)nc(O)c21 (stereo not drawn) [Example 328] | 530 | 60 |
| CCC(c1ccc(F)c(F)c1)n1ncc2nc(-n3cc(C(=O)O)cn3)nc(O)c21 (stereo not drawn) [Example 330] | 580 | 36 |
| CCC(c1cc(F)cc(F)c1)n1ncc2nc(-n3cc(C(=O)O)cn3)nc(O)c21 (stereo not drawn) [Example 332] | 550 | 45 |
| CCC(c1cc(C(F)(F)F)cc(C(F)(F)F)c1)n1ncc2nc(-n3cc(C(=O)O)cn3)nc(O)c21 (stereo not drawn) [Example 334] | 2500 | 260 |
| CC[C@@H](c1ccc(Cl)c(Cl)c1)n1ncc2nc(-n3cc(C(=O)O)cn3)nc(O)c21 [Example 336] | 170 | 23 |
| CCC(c1ccc(F)c(Cl)c1)n1ncc2nc(-n3cc(C(=O)O)cn3)nc(O)c21 (stereo not drawn) [Example 337] | 420 | 32 |
| CCC(c1cc(F)cc(Cl)c1)n1ncc2nc(-n3cc(C(=O)O)cn3)nc(O)c21 (stereo not drawn) [Example 339] | 370 | 36 |
| CCC(c1cccc(C(F)(F)F)c1)n1ncc2nc(-n3cc(C(=O)O)cn3)nc(O)c21 (stereo not drawn) [Example 341] | 790 | 52 |
| CC[C@@H](c1cccc(Cl)c1)n1ncc2nc(-n3cc(C(=O)O)cn3)nc(O)c21 [Example 343] | 610 | 92 |
| CC[C@@H](c1ccc(F)c(C)c1)n1ncc2nc(-n3cc(C(=O)O)cn3)nc(O)c21 [Example 344] | 530 | 25 |
| CC[C@@H](c1ccc(C)c(F)c1)n1ncc2nc(-n3cc(C(=O)O)cn3)nc(O)c21 [Example 345] | 830 | 53 |
| CCC(c1ccc(Cl)c(C)c1)n1ncc2nc(-n3cc(C(=O)O)cn3)nc(O)c21 (stereo not drawn) [Example 346] | 530 | 65 |
| CCC(c1ccc(Cl)cc1F)n1ncc2nc(-n3cc(C(=O)O)cn3)nc(O)c21 (stereo not drawn) [Example 350] | 530 | 49 |
| CC[C@@H](c1ccc(OC(F)(F)F)c(F)c1)n1ncc2nc(-n3cc(C(=O)O)cn3)nc(O)c21 [Example 352] | 420 | 32 |
